Assay results reported in US9505740B2, “Cyclic amine derivative and pharmaceutical use thereof” (Toray Industries, Inc., priority 2013, dated 2016).
Where a name gives a salt, the structure may show the parent alone.

What was measured:
[1] = test system: fibromyalgia syndrome model rats; experiment: Fibromyalgia syndrome model in rats (acidic saline), allodynia by von Frey filament; assay type: in vivo, rat; conditions: vs acidic saline-vehicle group
Excerpt: Using a fibromyalgia syndrome model in rats by which fibromyalgia syndrome can be evaluated, the analgesic action of a cyclic amine derivative (I) or a prodrug thereof or a pharmacologically acceptable salt thereof was investigated.
As the cyclic amine derivative (I) or a pharmacologically acceptable salt thereof, the compound of Example 13 was used for evaluation. As the prodrug of a cyclic amine derivative (I) or a pharmacologically acceptable salt thereof, the compound of Example 38 was used for evaluation. The compound of Example 38 is a hydrochloride of a prodrug obtained by esterifying the carboxyl group of the compound of Example 39 with an ethyl group.
To prepare a fibromyalgia syndrome model rat (Sluka et al., Journal of Pharmacology and Experimental Therapeutics, vol. 302, p. 1146-50, 2002; Nagakura et al., Pain, vol. 146, p. 26-33, 2009; Sluka et al., Pain, vol. 146, p. 3-4, 2009), which is generally employed widely in basic research for fibromyalgia syndrome, acidic saline (100 μL) adjusted to pH4.0 was intramuscularly injected to the gastrocnemius muscle of the right hind paw of Crl: CD(SD) rat (6 to 7 weeks old, male; from CHARLES RIVER LABORATORIES JAPAN, INC.) under continuous inhalation anesthesia with isoflurane, twice (once in each day of Day 1 and Day 6, wherein Day 1 was the date on which the acidic saline was initially administrated). The rats thus prepared were raised in a breeding room controlled at an indoor temperature of 21 to 25° C. and an indoor humidity of 40 to 70% under the conditions of voluntary intake of food and water. In the same manner, rats to which physiological saline in place of acidic saline was intramuscularly injected were raised. The rats thus raised and not afflicted with fibromyalgia syndrome (“physiological saline-vehicle” group in FIGS. 23 and 24) were also used in the experiment.
Day 7 after the initial administration of acidic saline, allodynia in each rat was measured. […] Note that, measurement of allodynia was performed by use of a von Frey filament (from North Coast Medical) in accordance with the method described in a known literature (Chaplan et al., Journal of Neuroscience Methods, vol. 53, p. 55-63, 1994). […]
The compound of Example 13 (3 and 10 mg/kg) was dissolved in physiological saline and then administered (intravenous administration) to fibromyalgia syndrome model rats through the tail vein (“acidic saline—the compound of Example 13” in FIG. 23). […] In thirty minutes after the intravenous administration, allodynia in individual rats was measured to evaluate an analgesic action. […]

[2] = test system: mouse partial sciatic nerve ligation model; experiment: Mouse partial sciatic nerve ligation model (Seltzer model), von Frey test; assay type: in vivo; conditions: oral administration; Example 8 10 mg/kg (Day 7), Example 38 0.1 to 10 mg/kg (Day 8), pregabalin 10 mg/kg; 1, 2 and 3 hours after administration; vs partial sciatic nerve ligation+distilled water, p<0.05
Excerpt: Using a partial sciatic nerve ligation model (Seltzer model) in mice by which neuropathic pain can be evaluated, the analgesic action of a cyclic amine derivative (I) or a prodrug thereof or a pharmacologically acceptable salt thereof was investigated.
As the cyclic amine derivative (I) or a pharmacologically acceptable salt thereof, the compounds of Example 2, 4, 6, 8, 10, 12, 13, 15, 18, 22, 25, 27, 29, 31, 33, 66, 68 or 70 was used for evaluation. As the prodrug of the cyclic amine derivative (I) or a pharmacologically acceptable salt thereof, the compound of Example 38 was used for evaluation. The compound of Example 38 is a hydrochloride of a prodrug obtained by esterifying the carboxyl group of the compound of Example 39 with an ethyl group.
The mouse partial sciatic nerve ligation model was prepared in accordance with the method of Seltzer et al. (Malmberg et al., Pain, vol. 76, p. 215-222, 1998). • Slc: ICR mice (5 weeks old, male; from Japan SLC, Inc.) or Crl: CD1 (ICR) mice (5 weeks old, male; from CHARLES RIVER LABORATORIES JAPAN, INC.) were anesthetized with sodium pentobarbital (70 mg/kg, intraperitoneal administration). The sciatic nerve at the femoral region of the right hind paw of each mouse was exposed and triply ligated tightly with silk suture of 8-0 (from NATSUME […]., LTD.) under a stereomicroscope so that only half thickness of the nerve was trapped in the ligature. A group of mice thus treated was designated as a partial sciatic nerve ligation group. A group of mice whose sciatic nerve was just exposed and not ligated was designated as a sham surgery group.
Evaluation of neuropathic pain (hereinafter referred to as von Frey test) was performed as follows. Mice were conditioned for at least two hours in an acrylic cage for measurement (from NATSUME […]. LTD.) placed on a wire net. […]

[3] = test system: mouse partial sciatic nerve ligation model; experiment: as above; assay type: in vivo; conditions: intravenous administration (tail vein), Day 7; Examples 2, 4: 0.1 to 10 mg/kg; 13: 0.01 to 1 mg/kg; 18, 22: 0.1 and 1 mg/kg; 25, 27, 29, 31, 33, 66, 68, 70: 0.1 mg/kg; pregabalin 1 or 3 mg/kg; vs physiological saline group
[4] = oral administration, 10 mg/kg, one hour and three hours after administration, p<0.05

Row | SMILES | allodynia, 50% response threshold (mean value of the right hind paw and the left hind paw) [1, 4] | analgesic action, total score in the von Frey test [2] | analgesic action, total score in the von Frey test [3] | allodynia, 50% response threshold (mean value of the right hind paw and the left hind paw) ([1]; intravenous administration, Example 13 3 and 10 mg/kg, pregabalin 10 mg/kg, 30 minutes after administration)
1 | CCOC(=O)Cn1ccnc1CCC(=O)N1CCC(N(C)C)CC1 [Example 38, ethyl 2-(2-(3-(4-(dimethylamino)piperidin-1-yl)-3-oxopropyl)-1H-imidazol-1-yl)acetate hydrochloride] | statistically significantly improved | statistically significant analgesic action | – | –
2 | Cn1ccnc1CCC(=O)N1CCC(N)CC1 [Example 8, 1-(4-aminopiperidin-1-yl)-3-(1-methyl-1H-imidazol-2-yl)propan-1-one hydrochloride] | – | statistically significant analgesic action | – | –
3 | CC(C)C[C@H](CN)CC(=O)O [pregabalin, reference compound] | statistically significantly improved | statistically significant analgesic action | statistically significant analgesic action | statistically significantly improved
